Test results: ChEMBL document CHEMBL5678807, “A selective jumonji H3K27 demethylase inhibitor modulates the proinflammatory macrophage response” (Nature, 2012)

What was measured:
[1] = target: Prostaglandin G/H synthase 2 (Homo sapiens, UniProt P35354); experiment: Inhibition of human COX-2 by FLINT assay
Histone deacetylase 1 = Histone deacetylase 1 (Homo sapiens, UniProt Q13547); experiment: Inhibition of human HDAC1 by FLINT assay
Histone deacetylase 2 = Histone deacetylase 2 (Homo sapiens, UniProt Q92769); experiment: Inhibition of human HDAC2 by FLINT assay
Histone deacetylase 3 = Histone deacetylase 3 (Homo sapiens, UniProt O15379); experiment: Inhibition of human HDAC3 by FLINT assay
Histone deacetylase 8 = Histone deacetylase 8 (Homo sapiens, UniProt Q9BY41); experiment: Inhibition of human HDAC8 by FLINT assay
[2] = target: 5-hydroxytryptamine receptor 1B (Homo sapiens, UniProt P28222); experiment: Antagonist activity at human 5-HT1B by SPA; format: functional
[3] = Antagonist activity at human 5-HT3 by intracellular Ca fluorescence assay; format: cell-based
D(1A) dopamine receptor = D(1A) dopamine receptor (Homo sapiens, UniProt P21728); experiment: Antagonist activity at human dopamine 1 receptor by TR-FRET assay; format: functional
Histamine H1 receptor = Histamine H1 receptor (Homo sapiens, UniProt P35367); experiment: Antagonist activity at human HRH1 by intracellular Ca luminescence assay; format: functional, cell-based
[4] = target: T1, Muscarinic acetylcholine receptor M1 (Homo sapiens, UniProt P11229); experiment: Agonist activity at human CHRM1 by intracellular Ca fluorescence assay; format: functional, cell-based
T1 sequence (P11229 whole entry): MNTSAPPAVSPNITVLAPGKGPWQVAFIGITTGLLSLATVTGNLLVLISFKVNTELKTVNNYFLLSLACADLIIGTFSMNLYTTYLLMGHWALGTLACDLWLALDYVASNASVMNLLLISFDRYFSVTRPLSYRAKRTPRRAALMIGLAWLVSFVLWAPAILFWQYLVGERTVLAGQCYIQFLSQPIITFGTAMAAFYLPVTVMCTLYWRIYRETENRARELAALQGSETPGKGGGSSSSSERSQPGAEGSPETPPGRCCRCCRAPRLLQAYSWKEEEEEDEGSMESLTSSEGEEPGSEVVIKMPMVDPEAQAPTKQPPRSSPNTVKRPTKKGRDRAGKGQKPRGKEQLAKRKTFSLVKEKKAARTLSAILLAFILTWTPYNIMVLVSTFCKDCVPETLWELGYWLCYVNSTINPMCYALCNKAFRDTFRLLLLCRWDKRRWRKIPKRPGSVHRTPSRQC

[5] = target: T1, Muscarinic acetylcholine receptor M1; experiment: Antagonist activity at human CHRM1 by intracellular Ca fluorescence assay; format: functional, cell-based
hERG (KCNH2) = hERG (KCNH2) (Homo sapiens, UniProt Q12809); experiment: Blockade of human KCNH2 by electrophysiology assay; format: toxicity
Macrophage [6] = experiment: Antiinflammatory activity in human primary macrophages assessed as effect on LPS-induced BMP1 gene expression at 30 uM measured after 2 hrs by RT-PCR array (reference value: 3930 a.u.); format: functional
Macrophage [7] = experiment: Antiinflammatory activity in human primary macrophages assessed as effect on LPS-induced FAM3B gene expression at 30 uM measured after 2 hrs by RT-PCR array (reference value: 996 a.u.); format: functional
Macrophage [8] = experiment: Antiinflammatory activity in human primary macrophages assessed as effect on LPS-induced FIGF gene expression at 30 uM measured after 2 hrs by RT-PCR array (reference value: 60 a.u.); format: functional
Macrophage [9] = experiment: Antiinflammatory activity in human primary macrophages assessed as effect on LPS-induced GDF11 gene expression at 30 uM measured after 2 hrs by RT-PCR array (reference value: 115 a.u.); format: functional
Macrophage [10] = experiment: Antiinflammatory activity in human primary macrophages assessed as effect on LPS-induced IFNA2 gene expression at 30 uM measured after 2 hrs by RT-PCR array (reference value: 1099 a.u.); format: functional
Macrophage [11] = experiment: Antiinflammatory activity in human primary macrophages assessed as effect on LPS-induced IFNK gene expression at 30 uM measured after 2 hrs by RT-PCR array (reference value: 724 a.u.); format: functional
Macrophage [12] = experiment: Antiinflammatory activity in human primary macrophages assessed as effect on LPS-induced IL11 gene expression at 30 uM measured after 2 hrs by RT-PCR array (reference value: 6 a.u.); format: functional
Macrophage [13] = experiment: Antiinflammatory activity in human primary macrophages assessed as effect on LPS-induced IL16 gene expression at 30 uM measured after 2 hrs by RT-PCR array (reference value: 8635 a.u.); format: functional
Macrophage [14] = experiment: Antiinflammatory activity in human primary macrophages assessed as effect on LPS-induced IL1F6 gene expression at 30 uM measured after 2 hrs by RT-PCR array (reference value: 145 a.u.); format: functional
Macrophage [15] = experiment: Antiinflammatory activity in human primary macrophages assessed as effect on LPS-induced IL1F9 gene expression at 30 uM measured after 2 hrs by RT-PCR array (reference value: 5170 a.u.); format: functional
Macrophage [16] = experiment: Antiinflammatory activity in human primary macrophages assessed as effect on LPS-induced IL20 gene expression at 30 uM measured after 2 hrs by RT-PCR array (reference value: 2040 a.u.); format: functional
Macrophage [17] = experiment: Antiinflammatory activity in human primary macrophages assessed as effect on LPS-induced IL24 gene expression at 30 uM measured after 2 hrs by RT-PCR array (reference value: 12164 a.u.); format: functional
Macrophage [18] = experiment: Antiinflammatory activity in human primary macrophages assessed as effect on LPS-induced IL8 gene expression at 30 uM measured after 2 hrs by RT-PCR array (reference value: 11155386 a.u.); format: functional
Macrophage [19] = experiment: Antiinflammatory activity in human primary macrophages assessed as effect on LPS-induced TGFA gene expression at 30 uM measured after 2 hrs by RT-PCR array (reference value: 3224 a.u.); format: functional
Macrophage [20] = experiment: Antiinflammatory activity in human primary macrophages assessed as effect on LPS-induced TGFB1 gene expression at 30 uM measured after 2 hrs by RT-PCR array (reference value: 72816 a.u.); format: functional
Macrophage [21] = experiment: Antiinflammatory activity in human primary macrophages assessed as effect on LPS-induced TGFB3 gene expression at 30 uM measured after 2 hrs by RT-PCR array (reference value: 524 a.u.); format: functional
Macrophage [22] = experiment: Antiinflammatory activity in human primary macrophages assessed as effect on LPS-induced TNF gene expression at 30 uM measured after 2 hrs by RT-PCR array (reference value: 7222474 a.u.); format: functional
Macrophage [23] = experiment: Antiinflammatory activity in human primary macrophages assessed as effect on LPS-induced TNFSF11 gene expression at 30 uM measured after 2 hrs by RT-PCR array (reference value: 32 a.u.); format: functional
Macrophage [24] = experiment: Antiinflammatory activity in human primary macrophages assessed as effect on LPS-induced TNFSF14 gene expression at 30 uM measured after 2 hrs by RT-PCR array (reference value: 5963 a.u.); format: functional
Macrophage [25] = experiment: Antiinflammatory activity in human primary macrophages assessed as effect on LPS-induced TNFSF4 gene expression at 30 uM measured after 2 hrs by RT-PCR array (reference value: 880 a.u.); format: functional

Sequence of Histone deacetylase 8 (Q9BY41 whole entry): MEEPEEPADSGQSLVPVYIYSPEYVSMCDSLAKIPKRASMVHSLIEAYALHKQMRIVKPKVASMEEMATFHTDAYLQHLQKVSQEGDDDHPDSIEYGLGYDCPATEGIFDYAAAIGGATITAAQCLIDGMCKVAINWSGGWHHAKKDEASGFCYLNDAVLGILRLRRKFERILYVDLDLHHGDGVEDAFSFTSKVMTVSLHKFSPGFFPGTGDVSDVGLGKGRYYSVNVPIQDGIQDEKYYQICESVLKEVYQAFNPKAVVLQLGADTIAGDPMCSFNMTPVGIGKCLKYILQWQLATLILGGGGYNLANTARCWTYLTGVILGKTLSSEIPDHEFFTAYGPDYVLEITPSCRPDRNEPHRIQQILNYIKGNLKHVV
Sequence of Prostaglandin G/H synthase 2 (P35354 whole entry): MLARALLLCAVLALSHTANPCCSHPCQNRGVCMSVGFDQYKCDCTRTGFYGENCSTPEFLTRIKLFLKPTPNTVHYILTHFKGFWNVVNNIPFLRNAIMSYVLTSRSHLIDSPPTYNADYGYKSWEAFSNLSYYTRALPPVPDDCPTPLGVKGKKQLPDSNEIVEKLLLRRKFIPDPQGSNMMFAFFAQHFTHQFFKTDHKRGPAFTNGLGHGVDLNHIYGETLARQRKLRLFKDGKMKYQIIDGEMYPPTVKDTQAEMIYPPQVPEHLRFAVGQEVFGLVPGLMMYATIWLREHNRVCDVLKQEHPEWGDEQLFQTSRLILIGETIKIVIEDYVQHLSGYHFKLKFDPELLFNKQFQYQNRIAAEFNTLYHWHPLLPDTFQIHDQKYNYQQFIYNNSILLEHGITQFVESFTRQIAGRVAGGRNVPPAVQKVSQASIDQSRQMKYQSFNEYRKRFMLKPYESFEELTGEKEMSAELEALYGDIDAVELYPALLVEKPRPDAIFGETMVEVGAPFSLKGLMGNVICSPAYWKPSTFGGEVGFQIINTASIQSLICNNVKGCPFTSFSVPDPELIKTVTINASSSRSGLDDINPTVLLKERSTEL
Sequence of Histone deacetylase 1 (Q13547 whole entry): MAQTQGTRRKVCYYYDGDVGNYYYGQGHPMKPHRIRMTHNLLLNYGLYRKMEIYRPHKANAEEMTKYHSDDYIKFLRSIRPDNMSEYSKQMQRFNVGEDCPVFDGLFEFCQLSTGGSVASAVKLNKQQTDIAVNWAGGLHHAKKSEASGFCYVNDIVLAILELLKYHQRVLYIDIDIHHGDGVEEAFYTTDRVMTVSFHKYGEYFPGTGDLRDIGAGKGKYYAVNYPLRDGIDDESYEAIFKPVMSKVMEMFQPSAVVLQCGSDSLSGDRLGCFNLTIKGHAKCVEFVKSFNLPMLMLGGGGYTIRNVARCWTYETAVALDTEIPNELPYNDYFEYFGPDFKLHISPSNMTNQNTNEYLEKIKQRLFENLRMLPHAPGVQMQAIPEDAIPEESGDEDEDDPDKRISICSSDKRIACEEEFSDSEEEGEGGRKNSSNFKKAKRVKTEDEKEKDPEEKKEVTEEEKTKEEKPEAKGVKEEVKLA
Sequence of D(1A) dopamine receptor (P21728 whole entry): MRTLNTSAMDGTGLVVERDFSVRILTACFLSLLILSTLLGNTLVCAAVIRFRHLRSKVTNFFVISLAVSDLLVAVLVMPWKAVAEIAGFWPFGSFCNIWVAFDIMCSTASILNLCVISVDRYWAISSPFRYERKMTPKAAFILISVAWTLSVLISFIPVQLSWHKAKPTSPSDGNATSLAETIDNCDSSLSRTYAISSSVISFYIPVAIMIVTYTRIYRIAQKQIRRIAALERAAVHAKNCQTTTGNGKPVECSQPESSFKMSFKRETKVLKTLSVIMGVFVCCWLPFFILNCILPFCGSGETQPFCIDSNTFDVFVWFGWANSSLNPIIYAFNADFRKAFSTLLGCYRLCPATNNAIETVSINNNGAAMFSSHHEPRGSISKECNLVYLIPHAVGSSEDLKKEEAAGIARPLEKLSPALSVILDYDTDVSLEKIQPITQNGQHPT
Sequence of 5-hydroxytryptamine receptor 1B (P28222 whole entry): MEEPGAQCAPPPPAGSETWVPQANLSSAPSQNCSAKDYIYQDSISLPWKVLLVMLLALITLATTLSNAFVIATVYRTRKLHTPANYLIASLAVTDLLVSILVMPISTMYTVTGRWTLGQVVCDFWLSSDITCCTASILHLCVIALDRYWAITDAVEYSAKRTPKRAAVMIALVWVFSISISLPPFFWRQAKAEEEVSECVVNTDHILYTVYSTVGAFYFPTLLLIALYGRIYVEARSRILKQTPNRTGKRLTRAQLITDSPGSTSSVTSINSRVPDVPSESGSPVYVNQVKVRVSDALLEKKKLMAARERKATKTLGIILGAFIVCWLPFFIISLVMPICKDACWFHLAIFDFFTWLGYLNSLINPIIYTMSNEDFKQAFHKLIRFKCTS
Sequence of Histamine H1 receptor (P35367 whole entry): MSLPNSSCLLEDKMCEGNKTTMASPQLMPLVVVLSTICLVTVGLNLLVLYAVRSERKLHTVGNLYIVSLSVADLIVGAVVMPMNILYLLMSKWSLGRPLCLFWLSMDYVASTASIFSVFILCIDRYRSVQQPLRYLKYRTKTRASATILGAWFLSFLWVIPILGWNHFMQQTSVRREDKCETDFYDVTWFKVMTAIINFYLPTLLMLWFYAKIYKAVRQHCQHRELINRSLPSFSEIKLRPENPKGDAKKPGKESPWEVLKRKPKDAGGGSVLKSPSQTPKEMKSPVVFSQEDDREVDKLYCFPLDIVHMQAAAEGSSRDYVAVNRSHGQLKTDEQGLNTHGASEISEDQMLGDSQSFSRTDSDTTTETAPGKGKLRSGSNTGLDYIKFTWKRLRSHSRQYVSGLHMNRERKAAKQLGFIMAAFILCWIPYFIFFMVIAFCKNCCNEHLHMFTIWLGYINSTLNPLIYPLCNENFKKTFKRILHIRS
Sequence of hERG (KCNH2) (Q12809 whole entry): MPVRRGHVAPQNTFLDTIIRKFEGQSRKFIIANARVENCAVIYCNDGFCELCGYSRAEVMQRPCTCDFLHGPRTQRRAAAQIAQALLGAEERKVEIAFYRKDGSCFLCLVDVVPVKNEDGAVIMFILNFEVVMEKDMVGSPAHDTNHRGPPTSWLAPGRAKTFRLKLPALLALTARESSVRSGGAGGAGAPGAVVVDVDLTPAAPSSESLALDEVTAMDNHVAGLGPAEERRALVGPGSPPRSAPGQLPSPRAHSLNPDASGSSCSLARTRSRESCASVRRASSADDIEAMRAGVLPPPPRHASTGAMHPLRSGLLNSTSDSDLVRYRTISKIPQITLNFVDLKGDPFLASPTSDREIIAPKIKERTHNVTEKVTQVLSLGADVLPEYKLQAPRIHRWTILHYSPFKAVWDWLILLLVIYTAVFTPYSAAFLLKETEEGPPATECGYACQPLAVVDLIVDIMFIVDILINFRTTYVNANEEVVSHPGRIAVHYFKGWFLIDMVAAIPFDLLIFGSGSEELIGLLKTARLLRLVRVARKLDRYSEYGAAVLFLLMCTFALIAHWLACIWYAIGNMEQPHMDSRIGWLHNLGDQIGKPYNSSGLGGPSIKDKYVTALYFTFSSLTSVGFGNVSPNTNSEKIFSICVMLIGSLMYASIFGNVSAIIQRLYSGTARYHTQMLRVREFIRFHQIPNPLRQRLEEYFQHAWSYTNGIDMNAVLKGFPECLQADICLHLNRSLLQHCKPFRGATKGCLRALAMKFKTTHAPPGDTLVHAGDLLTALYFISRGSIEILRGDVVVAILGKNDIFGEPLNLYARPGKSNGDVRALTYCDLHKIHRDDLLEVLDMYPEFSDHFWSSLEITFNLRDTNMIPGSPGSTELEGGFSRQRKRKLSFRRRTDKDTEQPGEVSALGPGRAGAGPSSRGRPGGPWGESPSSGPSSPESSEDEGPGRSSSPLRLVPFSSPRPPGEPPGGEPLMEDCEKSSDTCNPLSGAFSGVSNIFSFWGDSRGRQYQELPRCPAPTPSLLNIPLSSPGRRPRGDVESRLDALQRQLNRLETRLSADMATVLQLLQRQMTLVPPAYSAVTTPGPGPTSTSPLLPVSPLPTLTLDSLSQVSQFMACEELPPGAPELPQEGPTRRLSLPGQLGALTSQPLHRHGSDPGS
Sequence of Histone deacetylase 2 (Q92769 whole entry): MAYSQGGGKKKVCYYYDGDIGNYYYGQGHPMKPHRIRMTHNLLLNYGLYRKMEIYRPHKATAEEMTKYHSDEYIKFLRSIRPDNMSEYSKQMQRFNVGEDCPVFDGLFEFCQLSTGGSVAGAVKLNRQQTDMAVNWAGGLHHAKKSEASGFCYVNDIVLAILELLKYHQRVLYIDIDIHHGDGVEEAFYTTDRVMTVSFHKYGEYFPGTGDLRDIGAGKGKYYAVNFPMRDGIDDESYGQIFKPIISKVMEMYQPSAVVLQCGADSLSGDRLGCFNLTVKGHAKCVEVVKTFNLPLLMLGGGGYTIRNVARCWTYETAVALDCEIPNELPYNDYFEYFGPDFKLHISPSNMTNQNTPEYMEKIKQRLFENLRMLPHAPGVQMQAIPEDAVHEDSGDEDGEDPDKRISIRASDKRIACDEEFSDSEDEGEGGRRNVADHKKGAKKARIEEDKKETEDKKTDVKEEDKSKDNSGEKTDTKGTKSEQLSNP
Sequence of Histone deacetylase 3 (O15379 whole entry): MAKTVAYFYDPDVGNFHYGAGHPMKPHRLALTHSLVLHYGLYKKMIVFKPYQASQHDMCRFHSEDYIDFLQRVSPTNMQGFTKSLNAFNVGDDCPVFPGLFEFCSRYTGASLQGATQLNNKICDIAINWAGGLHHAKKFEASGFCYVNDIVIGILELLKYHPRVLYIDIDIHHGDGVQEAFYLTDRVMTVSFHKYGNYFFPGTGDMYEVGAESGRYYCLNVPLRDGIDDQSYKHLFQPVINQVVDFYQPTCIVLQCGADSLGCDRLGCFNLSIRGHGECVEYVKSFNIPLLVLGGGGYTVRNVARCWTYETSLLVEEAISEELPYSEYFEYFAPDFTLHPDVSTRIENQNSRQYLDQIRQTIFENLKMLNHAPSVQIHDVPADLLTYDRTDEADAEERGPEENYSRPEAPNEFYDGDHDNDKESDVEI

## O=C(O)CCNc1cc(N2CCc3ccccc3CC2)nc(-c2cccnc2)n1
[1]
  XC50: > 63 µM
Histone deacetylase 1
  XC50: > 300 µM
Histone deacetylase 2
  XC50: > 300 µM
Histone deacetylase 3
  XC50: > 300 µM
Histone deacetylase 8
  XC50: > 300 µM
[2]
  XC50: > 32 µM
[3]
  XC50: 25 µM
D(1A) dopamine receptor
  XC50: > 32 µM
Histamine H1 receptor
  XC50: > 40 µM
[4]
  XC50: > 16 µM
[5]
  XC50: > 16 µM
hERG (KCNH2)
  XC50: > 50 µM

## O=C(O)CCNc1cc(N2CCc3ccccc3CC2)nc(-c2ccccn2)n1
[1]
  XC50: > 63 µM
Histone deacetylase 1
  XC50: > 300 µM
Histone deacetylase 2
  XC50: > 300 µM
Histone deacetylase 3
  XC50: > 300 µM
Histone deacetylase 8
  XC50: > 300 µM
[2]
  XC50: > 32 µM
[3]
  XC50: > 4.3 µM
D(1A) dopamine receptor
  XC50: > 32 µM
Histamine H1 receptor
  XC50: > 40 µM
[4]
  XC50: > 16 µM
[5]
  XC50: > 16 µM
hERG (KCNH2)
  XC50: 8 µM

## CCOC(=O)CCNc1cc(N2CCc3ccccc3CC2)nc(-c2ccccn2)n1
Macrophage [6]
  Activity: 2627 a.u.
Macrophage [7]
  Activity: 9 a.u.
Macrophage [8]
  Activity: 19 a.u.
Macrophage [9]
  Activity: 31 a.u.
Macrophage [10]
  Activity: 641 a.u.
Macrophage [11]
  Activity: 3510 a.u.
Macrophage [12]
  Activity: 403 a.u.
Macrophage [13]
  Activity: 6284 a.u.
Macrophage [14]
  Activity: 1 a.u.
Macrophage [15]
  Activity: 476 a.u.
Macrophage [16]
  Activity: 372 a.u.
Macrophage [17]
  Activity: 11754 a.u.
Macrophage [18]
  Activity: 1556795 a.u.
Macrophage [19]
  Activity: 3241 a.u.
Macrophage [20]
  Activity: 50103 a.u.
Macrophage [21]
  Activity: 650 a.u.
Macrophage [22]
  Activity: 1593909 a.u.
Macrophage [23]
  Activity: 255 a.u.
Macrophage [24]
  Activity: 9678 a.u.
Macrophage [25]
  Activity: 1586 a.u.

## CCOC(=O)CCNc1cc(N2CCc3ccccc3CC2)nc(-c2cccnc2)n1
Macrophage [6]
  Activity: 2746 a.u.
Macrophage [7]
  Activity: 466 a.u.
Macrophage [8]
  Activity: 87 a.u.
Macrophage [9]
  Activity: 110 a.u.
Macrophage [10]
  Activity: 65 a.u.
Macrophage [11]
  Activity: 339 a.u.
Macrophage [12]
  Activity: 32 a.u.
Macrophage [13]
  Activity: 4600 a.u.
Macrophage [14]
  Activity: 121 a.u.
Macrophage [15]
  Activity: 2413 a.u.
Macrophage [16]
  Activity: 748 a.u.
Macrophage [17]
  Activity: 10100 a.u.
Macrophage [18]
  Activity: 5618140 a.u.
Macrophage [19]
  Activity: 2862 a.u.
Macrophage [20]
  Activity: 49233 a.u.
Macrophage [21]
  Activity: 357 a.u.
Macrophage [22]
  Activity: 5261995 a.u.
Macrophage [23]
  Activity: 27 a.u.
Macrophage [24]
  Activity: 5331 a.u.
Macrophage [25]
  Activity: 512 a.u.
